Patent publication US20230240297A1, “SELECTIVE HERBICIDES BASED ON SUBSTITUTED ISOXAZOLIN CARBOXAMIDES AND CYPROSULFAMIDE” (Bayer Aktiengesellschaft, priority 2020, published 2023)

Experiments:
[1] = tested on: ZEAMA Sileno; experiment: Tank-mix; post-emergence, crop damage with and without safener; assay type: in vivo, maize; conditions: for HER effect + SAF / HER effect: Final assessment; for HER effect: no safener
Experimental: Seeds of crops (spring wheat, TRZAS; spring barley, HORVS; maize, ZEAMA) were placed in sandy loam soil in peat pots, covered with soil and cultivated in a greenhouse under good growth conditions. Two to three weeks after sowing, the test plants were treated at the 1 to 3-leaf stage. The herbicide/safener active compound combinations according to the invention, formulated as wettable powders or emulsion concentrates, and, in parallel tests, the correspondingly formulated individual active compounds were sprayed onto the green parts of the plants in various dosages using an amount of water of 300 1/ha (converted).
The pots were returned under good growing conditions in a glasshouse and a visual assessment of herbicidal effects was made at intervals from 1 to 3 weeks after herbicide application (DAT = days after treatment). Assessment was on a percentage basis in comparison with untreated control plants (0% = no injury, 100% = complete kill).

[2] = tested on: ZEAMA Sileno; experiment: Seed treatment with safener; post-emergence herbicide application; assay type: in vivo, maize; design: Reduction [Difference]: scale not given here; conditions: Final assessment; for Reduction [%] / Reduction [Difference]: Cyprosulfamide 0.5 g a.i./kg seed; for Reduction [Difference]: damage without safener - damage with safener; for HER effect + SAF (crop damage with safener): Cyprosulfamide seed treatment 0.5 g a.i./kg seed; for HER effect (crop damage, herbicide without safener): no safener
Experimental: For the safener seed treatment, sufficient seeds of the respective crops (spring wheat, TRZAS; spring barley, HORVS; maize, ZEAMA) were weighed into screw top glass bottles approximately twice the volume of the seeds.
The specified safeners, formulated as wettable powder (WP) were weighed out so that the specified rates (g a.i./kg seed) would be obtained, dissolved in water (1 ml water per 10 g of seeds), and added to the seeds to produce a slurry.
The bottles were capped and then placed in an overhead shaker (set at medium speed for ca. 60 minutes) so that the seeds were evenly coated with the slurry. The bottles were uncapped and the seeds were either placed on paper and dried for an interval of 3-4 hours prior to sowing, or directly sown. Seeds were placed in sandy loam soil in pots of a diameter of 7-8 cm, covered with soil, and cultivated in a greenhouse under good growth conditions.
Post-emergence application of the specified herbicides was done when the plants had reached growth stage BBCH11-13, on two sets of plants:
a) seed treatment with safener, as described above b) no safener treatment
The herbicides were formulated as WP and sprayed onto the green parts of the plants as an aqueous suspension at an equivalent water application rate of 300 1/ha, with addition of wetting agent and adjuvants (e.g. Mero, 1.5 1/ha; ammonium sulphate, 2 kg/ha)
After application, the test plants were kept in the greenhouse under good growth conditions.
Values in the table below are mean values of at least 2 replicates.

[3] = HER 8 g a.i./ha, cyprosulfamide 50 g a.i./ha
[4] = HER 32 g a.i./ha, cyprosulfamide 100 g a.i./ha
[5] = HER dose 8 g a.i./ha + cyprosulfamide 50 g a.i./ha tank-mix
[6] = HER dose 32 g a.i./ha + cyprosulfamide 100 g a.i./ha tank-mix

SMILES	Reduction [%] [1, 3] [%]	Reduction [Difference] [1, 3]	Reduction [%] [1, 4] [%]	Reduction [Difference] [1, 4]	HER effect + SAF [1, 5] [%]	HER effect ([1]; HER dose 8 g a.i./ha) [%]	HER effect + SAF [1, 6] [%]	HER effect ([1]; HER dose 32 g a.i./ha) [%]	Reduction [%] ([2]; HER dose 8 g a.i./ha)	Reduction [Difference] ([2]; HER dose 8 g a.i./ha)	HER effect + SAF (crop damage with safener) ([2]; HER dose 8 g a.i./ha) [%]	HER effect (crop damage, herbicide without safener) ([2]; HER dose 8 g a.i./ha) [%]	Reduction [%] ([2]; HER dose 32 g a.i./ha)	Reduction [Difference] ([2]; HER dose 32 g a.i./ha)	HER effect + SAF (crop damage with safener) ([2]; HER dose 32 g a.i./ha) [%]	HER effect (crop damage, herbicide without safener) ([2]; HER dose 32 g a.i./ha) [%]	Reduction [%] ([2]; HER dose 2 g a.i./ha)	Reduction [Difference] ([2]; HER dose 2 g a.i./ha)	HER effect + SAF (crop damage with safener) ([2]; HER dose 2 g a.i./ha) [%]	HER effect (crop damage, herbicide without safener) ([2]; HER dose 2 g a.i./ha) [%]
CCOC(=O)C1C=CC(NC(=O)C2(C(F)(F)F)CC(c3ccccc3)=NO2)C1 (stereo not drawn) [Example 1.9]	87	68	59	50	10	78	35	85	100	78	0	78	100	85	0	85				
C=CCOC(=O)C1CC(NC(=O)C2(C=C)CC(c3cc(F)cc(F)c3)=NO2)CO1 (mixture of isomers) [Example 1.83]	73	45	73	62	17	62	23	85	100	62	0	62	96	82	3	85				
C=CCOC(=O)C1CC(NC(=O)C2(C)CC(c3cc(F)cc(F)c3)=NO2)CO1 (mixture of isomers) [Example 1.75]	62	45	66	58	28	73	30	88	100	73	0	73	89	78	10	88				
CC1(C(=O)NC2CC=C(C(=O)NS(C)(=O)=O)C2)CC(c2cc(F)cc(F)c2)=NO1 (mixture of isomers) [Example 1.61]									57	47	35	82	44	40	50	90				
COC(=O)C1C=CC(NC(=O)C2(C(F)(F)F)CC(c3cccc(F)c3)=NO2)C1 (stereo not drawn) [Example 1.18]	66	62	72	70	32	94	27	97	89	84	10	94	79	77	20	97				
COCCOC(=O)C1C=CC(NC(=O)C2(C)CC(c3cc(Cl)cc(C#N)c3)=NO2)C1 (stereo not drawn) [Example 1.5]	55	47	50	48	38	85	48	96	88	75	10	85	79	76	20	96	100	23	0	23
CCOC(=O)C1=CCC(NC(=O)C2(C)CC(c3cccc(F)c3)=NO2)C1 (mixture of isomers) [Example 1.59]	100	20	90	60	0	20	7	67	100	20	0	20	85	57	10	67				
C=CC1(C(=O)NC2COC(C(=O)OCCCl)C2)CC(c2cc(F)cc(F)c2)=NO1 (mixture of isomers) [Example 1.82]									89	83	10	93	84	77	15	92	100	28	0	28
